According to patent US10350315B2, “Quinoline-3-carboxamide compounds and their use in diagnosis” (Westfaelische Wihelms-Universitaet Muenster, priority 2014, dated 2019):

Assays:
[1] = Biodistribution of Cy5.5-CES271 in healthy Balb/c mice (fluorescence intensity in organs); assay type: in vivo
Protocol: FIG. 16: Biodistribution of Cy5.5-CES271 in healthy Balb/c mice. The tracer was intravenously injected at a dose of 2 nmol per mouse.
The biodistribution of Cy5.5-CES271 and [^99mTc]FEB054 injected to healthy Balb/c mice was analysed by the measurement of fluorescence intensity in various organs. […] The tracer was injected at a dose of 2 nmol per mouse. […] This kinetics, that is different to previously published antibody based tracer anti-S100A9-Cy5.5^7 kinetics favors Cy5.5-CES271 for imaging of organs neighboring the liver like the lung or the heart.

S100A9 = biological target: T1, S100A9 (Mus musculus, UniProt P31725); assay: LPS-induced acute lung injury (ALI) mouse model, FRI of explanted lungs; assay type: in vivo, mice
T1 construct: from tissue; host or cells: living mice (inflamed ear, joints) and explanted mouse heart, aorta and lungs
T1 sequence (P31725 2-113 limits assumed): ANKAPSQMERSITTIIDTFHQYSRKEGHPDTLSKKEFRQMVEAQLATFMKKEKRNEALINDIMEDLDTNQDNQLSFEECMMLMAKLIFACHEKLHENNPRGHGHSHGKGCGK
Protocol: FIG. 22: Accumulation of Cy5.5-CES271 in a mouse model of acute lung inflammation (ALI). (A) At different time points after the intranasal application of either 10 pg or 50 pg LPS the local and systemic levels of S100A8/S100A9 are compared to control animals. Exemplary paraffin sections of inflamed and healthy lung tissue, taken at 8 h after LPS (10 pg) application were stained for S100A9-expression. Histological data of control (upper image) and lung inflammation (lower image) confirmed local expression of these proteins. […] 50 pg LPS treated mice injected with glycine saturated Cy5.5 served as perfusion controls. (C) S100A8/S100A9 serum levels of LPS treated and control animals are correlated with the measured Mean Fluorescence Intensity over the lungs (R^2=0.69; n=19; p<0.001).
LPS-induced lung inflammation was elicited via intranasal application of 50 pg or 10 pg of LPS. LPS from Escherichia coli 055:B5 was obtained from Sigma-Aldrich. Directly after the administration of LPS 2 nmol of tracer were injected intravenously. Glycine saturated Cy5.5 served as a perfusion control for CES271-Cy5.5, while Cy5.5-labelled rabbit IgG without relevant specificity served as a control for aS100A9-Cy5.5. Mice were either assigned to fluorescence mediated tomography (FMT) to fluorescence reflectance imaging (FRI). For FRI imaging, the mice were sacrificed at the indicated time points. Afterwards, BALF was obtained and the lungs were fixed with 1% low melt aggarose.
2D FRI lung imaging was performed using the Bruker FX Pro Imaging Station (Bruker Corporation). Excitation light was set to 630 nm using an appropriate bandpass filter. Emission at 700 nm was recorded using a filtre-equipped high-sensitivity (4-million-pixel) cooled charge-coupled device camera. Acquisition time was 5 s for each image.
Mice were intravenously injected with Cy5.5-labelled CES271 (CES271-Cy5.5). The animals underwent optical imaging at various time points after injection. In our blocking experiments each mouse received 2 pmol CES271 1 h before 2 nmol of CES271-Cy5.5 were injected. […]

[2] = 2 nmol per mouse i.v., 1 and 3 h after injection
[3] = between 1 h and 3 h post injection, 2 nmol i.v.

## 3-ethyl-2((1E,3E,5E)-5-(3-(1-(5-ethyl-4-hydroxy-1-methyl-2-oxo-1,2-dihydroquinolin-3-yl)-1,15-dioxo-2-phenyl-5,8,11-trioxa-2,14-diazanonadecan-19-yl)-1,1-dimethyl-6,8-disulfonato-1H-benzo[e]indol-2(3H)-ylidene)penta-1,3-dien-1-yl)-1,1-dimethyl-1H-benzo[e]indol-3-ium-6,8-disulfonate [Cy5.5-CES271]
[1]; [2]
  Route of elimination: mainly driven by renal excretion
  Tissue availability: good tissue availability
[1]; 1 h compared with 3 h post injection, 2 nmol i.v.
  Tracer concentration in heart, spleen, muscle, brain: at the same level
[1]; 3 h vs 1 h post injection, 2 nmol i.v.
  Tracer concentration in kidney, liver and lung: higher tracer concentrations
[1]; [3]
  Change of tracer concentration in the blood: decrease
  Change of tracer concentration in the urine: increases significantly
[1]; mouse, in vivo
  Kinetics compared to antibody based tracers: much faster kinetics
S100A9; 3 and 6 hours after parallel LPS/tracer application, 50 pg LPS intranasal, 2 nmol i.v., n=3, p<0.01
  Tracer accumulation in explanted lungs of LPS treated mice: specific tracer accumulation could clearly be delineated
S100A9; 6 h post induction
  Ratio of tracer accumulation in the lung parenchyma, LPS treated mice: up to 2.5
S100A9; n=19, p<0.001
  Correlation (R^2) of S100A8/S100A9 serum levels with Mean Fluorescence Intensity over the lungs: 0.69
